Measurements: ChEMBL document CHEMBL1201862, “PubChem BioAssay data set” (2004)
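Results reflect a 48-hour exposure of cells in 96-well plates to compound at five concentrations. Abbreviation: GI50, concentration required for 50% inhibition of growth.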 Activity calls are given as the source filed them. Rule as the data show it: active = GI50 up to about 1.1 µM and inactive = higher.

How the values were obtained:
Assay in all cases: DTP human tumour cell line panel, 48 h
M14 = tested on: M14
MDA-MB-231 = tested on: MDA-MB-231
OVCAR-5 = tested on: OVCAR-5
NCI-H460 = tested on: NCI-H460
U-251 = tested on: U-251
CCRF-CEM = tested on: CCRF-CEM
K562 = tested on: K562
HCC 2998 = tested on: HCC 2998
MCF7 = tested on: MCF7
SF-295 = tested on: SF-295
UACC-62 = tested on: UACC-62
SK-MEL-28 = tested on: SK-MEL-28
HT-29 = tested on: HT-29
NCI-H23 = tested on: NCI-H23
NCI-H522 = tested on: NCI-H522
HCT-116 = tested on: HCT-116
HOP-92 = tested on: HOP-92
OVCAR-4 = tested on: OVCAR-4
CAKI-1 = tested on: CAKI-1
RXF 393 = tested on: RXF 393
SK-MEL-2 = tested on: SK-MEL-2
COLO 205 = tested on: COLO 205
SNB-19 = tested on: SNB-19
EKVX = tested on: EKVX
SK-MEL-5 = tested on: SK-MEL-5
786-0 = tested on: 786-0
MDA-N = tested on: MDA-N
IGROV-1 = tested on: IGROV-1
OVCAR-8 = tested on: OVCAR-8
HCT-15 = tested on: HCT-15
Hs-578T = tested on: Hs-578T
PC-3 = tested on: PC-3
UACC-257 = tested on: UACC-257
SF-268 = tested on: SF-268
DU-145 = tested on: DU-145
SK-OV-3 = tested on: SK-OV-3
T47D = tested on: T47D
BT-549 = tested on: BT-549
MDA-MB-435 = tested on: MDA-MB-435
NCI-H226 = tested on: NCI-H226
A549 = tested on: A549
UO-31 = tested on: UO-31
SR = tested on: SR
SW-620 = tested on: SW-620
A498 = tested on: A498
NCI/ADR-RES = tested on: NCI/ADR-RES
KM12 = tested on: KM12
TK-10 = tested on: TK-10
ACHN = tested on: ACHN
HL-60 = tested on: HL-60
LOX IMVI = tested on: LOX IMVI
Malme-3M = tested on: Malme-3M
SNB-75 = tested on: SNB-75
MOLT-4 = tested on: MOLT-4
SN12C = tested on: SN12C
SF-539 = tested on: SF-539
OVCAR-3 = tested on: OVCAR-3
RPMI-8226 = tested on: RPMI-8226
HOP-62 = tested on: HOP-62

CCCCCCCCCCCC1=C(O)C(=O)C(CC2=C(O)C(=O)C(CCCCCCCCCCC)=C(O)C2=O)=C(O)C1=O
GI50 (M14): > 100 µM (inactive) | GI50 (MDA-MB-231): 28.6 µM (inactive) | GI50 (OVCAR-5): > 100 µM (inactive) | GI50 (NCI-H460): > 100 µM (inactive) | GI50 (U-251): 43.5 µM (inactive) | GI50 (CCRF-CEM): 21.2 µM (inactive) | GI50 (K562): 49.8 µM (inactive) | GI50 (HCC 2998): > 100 µM (inactive) | GI50 (MCF7): > 100 µM (inactive) | GI50 (SF-295): 35.2 µM (inactive) | GI50 (UACC-62): > 100 µM (inactive) | GI50 (SK-MEL-28): > 100 µM (inactive) | GI50 (HT-29): > 100 µM (inactive) | GI50 (NCI-H23): 54.6 µM (inactive) | GI50 (NCI-H522): 40.6 µM (inactive) | GI50 (HCT-116): > 100 µM (inactive) | GI50 (HOP-92): 16.3 µM (inactive) | GI50 (OVCAR-4): 40.7 µM (inactive) | GI50 (CAKI-1): 60.5 µM (inactive) | GI50 (RXF 393): 3.19 µM (inactive) | GI50 (SK-MEL-2): > 100 µM (inactive) | GI50 (COLO 205): > 100 µM (inactive) | GI50 (SNB-19): 21.1 µM (inactive) | GI50 (EKVX): > 100 µM (inactive) | GI50 (SK-MEL-5): > 100 µM (inactive) | GI50 (786-0): 59.6 µM (inactive) | GI50 (MDA-N): > 100 µM (inactive) | GI50 (IGROV-1): > 100 µM (inactive) | GI50 (OVCAR-8): 29.8 µM (inactive) | GI50 (HCT-15): > 100 µM | GI50 (Hs-578T): 22.8 µM (inactive) | GI50 (PC-3): > 100 µM (inactive) | GI50 (UACC-257): > 100 µM (inactive) | GI50 (SF-268): 26.5 µM (inactive) | GI50 (DU-145): > 100 µM (inactive) | GI50 (SK-OV-3): 50.9 µM (inactive) | GI50 (T47D): > 100 µM (inactive) | GI50 (BT-549): > 100 µM (inactive) | GI50 (MDA-MB-435): > 100 µM (inactive) | GI50 (NCI-H226): > 100 µM (inactive) | GI50 (A549): > 100 µM (inactive) | GI50 (UO-31): > 100 µM (inactive) | GI50 (SR): 19.2 µM (inactive) | GI50 (SW-620): > 100 µM (inactive) | GI50 (A498): 52.2 µM (inactive) | GI50 (NCI/ADR-RES): > 100 µM (inactive) | GI50 (KM12): > 100 µM (inactive) | GI50 (TK-10): 46.6 µM (inactive) | GI50 (ACHN): 76 µM (inactive) | GI50 (HL-60): > 10 µM (inactive) | GI50 (LOX IMVI): > 100 µM (inactive) | GI50 (Malme-3M): 44 µM (inactive) | GI50 (SNB-75): 14.9 µM (inactive) | GI50 (MOLT-4): > 100 µM (inactive) | GI50 (SN12C): > 100 µM (inactive) | GI50 (SF-539): > 100 µM (inactive)

C/C1=C\CC[C@@]2(C)O[C@@H]2C[C@@H]2[C@H](C/C(C)=C/CC1)OC(=O)[C@]21CO1
GI50 (M14): > 100 µM (inactive) | GI50 (MDA-MB-231): > 100 µM (inactive) | GI50 (OVCAR-5): > 100 µM (inactive) | GI50 (NCI-H460): 20.7 µM (inactive) | GI50 (U-251): 63.8 µM (inactive) | GI50 (CCRF-CEM): 46.2 µM (inactive) | GI50 (K562): 34.4 µM (inactive) | GI50 (HCC 2998): 78.9 µM (inactive) | GI50 (MCF7): 41.5 µM (inactive) | GI50 (SF-295): > 100 µM (inactive) | GI50 (UACC-62): 75.5 µM (inactive) | GI50 (OVCAR-3): > 100 µM (inactive) | GI50 (SK-MEL-28): > 100 µM (inactive) | GI50 (HT-29): 69.3 µM (inactive) | GI50 (NCI-H23): > 100 µM (inactive) | GI50 (NCI-H522): 32.5 µM (inactive) | GI50 (HCT-116): 41.5 µM (inactive) | GI50 (HOP-92): > 100 µM (inactive) | GI50 (OVCAR-4): > 100 µM (inactive) | GI50 (CAKI-1): > 100 µM (inactive) | GI50 (RXF 393): > 100 µM (inactive) | GI50 (SK-MEL-2): > 100 µM (inactive) | GI50 (COLO 205): > 100 µM (inactive) | GI50 (SNB-19): > 100 µM (inactive) | GI50 (EKVX): > 100 µM (inactive) | GI50 (SK-MEL-5): > 100 µM (inactive) | GI50 (786-0): > 100 µM (inactive) | GI50 (MDA-N): 61.1 µM (inactive) | GI50 (IGROV-1): 42.2 µM (inactive) | GI50 (OVCAR-8): > 100 µM (inactive) | GI50 (HCT-15): > 100 µM | GI50 (Hs-578T): > 100 µM (inactive) | GI50 (PC-3): > 100 µM (inactive) | GI50 (UACC-257): > 100 µM (inactive) | GI50 (SF-268): > 100 µM (inactive) | GI50 (DU-145): > 100 µM (inactive) | GI50 (SK-OV-3): > 100 µM (inactive) | GI50 (T47D): > 100 µM (inactive) | GI50 (BT-549): > 100 µM (inactive) | GI50 (MDA-MB-435): 65.8 µM (inactive) | GI50 (NCI-H226): > 100 µM (inactive) | GI50 (A549): 65.2 µM (inactive) | GI50 (UO-31): > 100 µM (inactive) | GI50 (SR): 36.7 µM (inactive) | GI50 (SW-620): 68.7 µM (inactive) | GI50 (A498): > 100 µM (inactive) | GI50 (NCI/ADR-RES): > 100 µM (inactive) | GI50 (RPMI-8226): 51.5 µM (inactive) | GI50 (KM12): 28.8 µM (inactive) | GI50 (TK-10): > 100 µM (inactive) | GI50 (ACHN): > 100 µM (inactive) | GI50 (HOP-62): > 100 µM (inactive) | GI50 (HL-60): > 100 µM (inactive) | GI50 (LOX IMVI): 19.6 µM (inactive) | GI50 (Malme-3M): > 100 µM (inactive) | GI50 (SNB-75): > 100 µM (inactive) | GI50 (MOLT-4): 22 µM (inactive) | GI50 (SN12C): 74.5 µM (inactive)
